Experimental findings from paper PMC5783810 (Saudi Pharmaceutical Journal : SPJ, 2017) are described below.

The data set in a line: Water solubility. To be noted: for fold increase in water solubility relative to trolox: relative to trolox (0.1 g/L); for solubility at 10 min: water, thermodynamic from solid.

Values after ≈ are worked out from the molar mass of the structure shown.

“6-Hydroxy-2,5,7,8-tetramethylchromane-2-carboxylate, 4-(N-acetylantranoiloxy)-8,9-dihydroxy-1α,14α,16β-trimethoxy-N-ethylammonium-18-norakonan [2p]”: the “fold increase in water solubility relative to trolox” value is reported as 20–590 fold.

In the case of `Cc1c(C)c2c(c(C)c1O)CCC(C)(C(=O)O)O2` (centres unmarked) [compound 1, 6-hydroxy-2,5,7,8-tetra methyl chromane-2-carboxylic acid, reference compound], the concentration in solution (solubility at 10 min) came to 100 µg/mL (≈ 400 µM).

In the case of “6-Hydroxy-2,5,7,8-tetramethylchromane-2-carboxylate 1-oxyl-2,2,6,6-tetramethylpiperidine-4-ammonium [2g]”, the “fold increase in water solubility relative to trolox” value amounted to 10 fold.

Turning to “6-Hydroxy-2,5,7,8-tetramethylchromane-2-carboxylate, 1-(1H-indol-3-yl)-N,N-dimetilmetanammonium [2q]”, the “fold increase in water solubility relative to trolox” value is recorded as 20–590 fold.

For “6-Hydroxy-2,5,7,8-tetramethylchromane-2-carboxylate, 3-(3,4-dimethoxybenzoate)-8-ammoniybicyclo[3.2.1]octane [2m]”, the “fold increase in water solubility relative to trolox” value is reported as 20–590 fold.

In the case of “6-Hydroxy-2,5,7,8-tetramethylchromane-2-carboxylate 1-oxyl-2,2,5,5-tetramethylpirrolidin-4-ammonium [2h]”, the “fold increase in water solubility relative to trolox” value amounted to 20 fold.

Consider `Cc1c(C)c2c(c(C)c1O)CCC(C)(C(=O)O)O2.O=c1cccc2n1CC1CNCC2C1` (stereo not drawn) [2l, 6-Hydroxy-2,5,7,8-tetramethylchromane-2-carboxylate, 1,2,3,4,5,6-hexahydro-1,5-methano-8H-pyridinium-[1,2-α][1,5]-diazotsin-8-one], for which the “fold increase in water solubility relative to trolox” value is recorded as 20–590 fold.

The compound `CCN(CC)CC.Cc1c(C)c2c(c(C)c1O)CCC(C)(C(=O)O)O2` (centres unmarked) [2n, 6-Hydroxy-2,5,7,8-tetramethylchromane-2-carboxylate, triethylammonium] registered a solubility at 10 min of 3000 µg/mL.

As a reminder, the solubility is how much of the substance goes into solution per volume. Read a high solubility as a readily soluble substance.
